In patent US20250282754A1, “BICYCLIC COMPOUNDS AND THEIR USE AS PEST CONTROL AGENTS” (Pl Industries Ltd., priority 2022, published 2025):

What was measured:
Format in all cases: in vivo
[1] = tested on: Myzus persicae; assay: Myzus persicae leaf dip test (capsicum leaves, third instar nymphs); settings: foliar, dead and moribund third instar nymphs 72 h after release, compared to untreated controls, read-out: percent mortality
Protocol: The leaf dip method was used for testing, wherein the required quantity of the compound was weighed and dissolved in a tube containing a solvent solution. The tube was put on a vortex at 2000 rpm for proper mixing and then diluted with a 0.01% Triton-X solution to the desired test concentration. Capsicum leaves were dipped in the compound solution for 10 seconds, shade dried for 20 min and then placed, with the abaxial side of the leaf up, in single cells of a bio-assay tray containing 4 ml of a solidified 1% agar-agar solution. Known numbers of third instar nymphs of Myzus persicae, collected in petri plates, were released into the cell with the treated leaf and the cell was covered with a perforated lid for better aeration. The trays were kept in a plant growth chamber at a temperature of 25° C. and a relative humidity of 70%. Observations on dead, moribund and alive nymphs were recorded 72 h after the release. Percent mortality was calculated by combining dead and moribund nymphs and comparing the result with the one of the untreated controls. The compounds

[2] = tested on: Bemisia tabaci; assay: Bemisia tabaci leaf dip test (brinjal leaves, whitefly adults); settings: foliar, dead and moribund whitefly adults 72 h after release, compared to untreated controls, read-out: percent mortality
Protocol: The leaf dip method was used for testing, wherein the required quantity of the compound was weighed and dissolved in a tube containing a solvent solution. The tube was put on a vortex at 2000 rpm for proper mixing and then diluted with a 0.01% Triton-X solution to the desired test concentration. Brinjal leaves were dipped in the compound solution for 10 seconds; shade dried for 20 min and then placed, with the abaxial side of the leaf up, on 4 ml of a solidified 1% agar-agar solution in respective container caps. Known numbers of freshly emerged whitefly adults were collected, using a modified aspirator, and released into a perforated container in which the cap containing the treated leaf was placed. The containers were kept in a plant growth chamber at a temperature of 25° C. and relative humidity of 70%. Observations on dead, moribund and alive adults were recorded 72 h after the release. Percent mortality was calculated by combining dead and moribund adults and comparing the result to the one of the untreated controls. The compounds 1 9 11 18 25 28 29 30 31

[3] = tested on: Nilaparvata lugens; assay: Nilaparvata lugens seedling dip test (paddy seedlings, third instar nymphs); settings: dead and moribund third instar nymphs 72 h after release, compared to untreated controls, read-out: percent mortality
Protocol: The seedling dip method was used for testing, wherein the required quantity of the compound was weighed and dissolved in a tube containing a solvent solution. The tube was put on a vortex at 2000 rpm for proper mixing and then diluted with a 0.01% Triton-X solution to the desired test concentration. Paddy seedlings were dipped in the compound solution for 10 seconds, shade dried for 20 min and then the seedlings were placed in glass test tubes with the roots kept in water. 15 third instar nymphs of Nilaparvata lugens were released into each test tube and the tubes were kept in a plant growth chamber at a temperature of 25° C. and relative humidity of 75%. Observations on dead, moribund and alive nymphs were recorded 72 h after the release. Percent mortality was calculated by combining dead and moribund nymphs and comparing the result to the one of the untreated controls. The compounds

## O=S(CCC(F)(F)F)(=Nc1ccc2nn(-c3ccnnc3)cc2c1)c1ccc(F)cc1 (stereo not drawn) [Compound 70]
[1]
  mortality at 300 ppm: ≥ 70%

## CCS(=O)(CC)=Nc1cccc2nn(-c3cncc(F)c3)cc12 [Compound 89]
[1]
  mortality at 300 ppm: ≥ 70%

## CC(C)S(C)(=O)=Nc1cccc2nn(-c3cncc(F)c3)cc12 (stereo not drawn) [Compound 90]
[1]
  mortality at 300 ppm: ≥ 70%

## CC(C)S(=O)(CCC(F)(F)F)=Nc1ccc2nn(-c3cccnc3)cc2c1 (stereo not drawn) [Compound 99]
[1]
  mortality at 300 ppm: ≥ 70%

## CC(C)S(=O)(CCC(F)(F)F)=Nc1cccc2nn(-c3cccnc3)cc12 (stereo not drawn) [Compound 102]
[1]
  mortality at 300 ppm: ≥ 70%

## COc1nn(-c2ccc3nn(-c4cccnc4)cc3c2)c(=O)n1C [Compound 110, 5-methoxy-4-methyl-2-(2-(pyridin-3-yl)-2H-indazol-5-yl)-2,4-dihydro-3H-1,2,4-triazol-3-one]
[2]
  mortality at 300 ppm: ≥ 70%
[1]
  mortality at 300 ppm: ≥ 70%

## COc1nn(-c2ccc3nn(-c4cncnc4)cc3c2)c(=O)n1C [Compound 119, 5-methoxy-4-methyl-2-(2-(pyrimidin-5-yl)-2H-indazol-5-yl)-2,4-dihydro-3H-1,2,4-triazol-3-one]
[2]
  mortality at 300 ppm: ≥ 70%
[1]
  mortality at 300 ppm: ≥ 70%

## CCn1c(OC)nn(-c2ccc3nn(-c4cccnc4)cc3c2)c1=O [Compound 123, 4-ethyl-5-methoxy-2-(2-(pyridin-3-yl)-2H-indazol-5-yl)-2,4-dihydro-3H-1,2,4-triazol-3-one]
[2]
  mortality at 300 ppm: ≥ 70%
[1]
  mortality at 300 ppm: ≥ 70%

## COc1nn(-c2ccc3nn(-c4cccnc4)cc3c2)c(=O)n1Cc1ccc(F)cc1 [Compound 124, 4-(4-fluorobenzyl)-5-methoxy-2-(2-(pyridin-3-yl)-2H-indazol-5-yl)-2,4-dihydro-3H-1,2,4-triazol-3-one]
[2]
  mortality at 300 ppm: ≥ 70%
[1]
  mortality at 300 ppm: ≥ 70%

## CCCS(=O)(CC)=Nc1cccc2nn(-c3cccnc3)cc12 (stereo not drawn) [Compound 136]
[1]
  mortality at 300 ppm: ≥ 70%

## CCCS(=O)(CC)=Nc1cccc2nn(-c3cncc(F)c3)cc12 (stereo not drawn) [Compound 138]
[1]
  mortality at 300 ppm: ≥ 70%

## CC(C)S(C)(=O)=Nc1cnc2nn(-c3cccnc3)cc2c1 (stereo not drawn) [Compound 156]
[1]
  mortality at 300 ppm: ≥ 70%

## Cc1cncc(-n2cc3cc(N=S(C)(C)=O)ccc3n2)c1 [Compound 168]
[1]
  mortality at 300 ppm: ≥ 70%

## CCCS(C)(=O)=Nc1ccc2nn(-c3cncnc3)c(Cl)c2c1 (stereo not drawn) [Compound 180]
[1]
  mortality at 300 ppm: ≥ 70%

## CS(=O)(=Nc1ccc2nn(-c3cccnc3)cc2n1)C1CCCCC1 (stereo not drawn) [Compound 216]
[2]
  mortality at 300 ppm: ≥ 70%
[1]
  mortality at 300 ppm: ≥ 70%

## CS(C)(=O)=Nc1ccc(Cl)c2nn(-c3cccnc3)cc12 [Compound 217]
[1]
  mortality at 300 ppm: ≥ 70%

## CC(C)S(C)(=O)=Nc1ccc(Cl)c2nn(-c3cccnc3)cc12 (stereo not drawn) [Compound 218]
[2]
  mortality at 300 ppm: ≥ 70%
[1]
  mortality at 300 ppm: ≥ 70%

## CS(C)(=O)=Nc1ccc2nn(-c3cccnc3)cc2n1 [Compound 224]
[2]
  mortality at 300 ppm: ≥ 70%
[1]
  mortality at 300 ppm: ≥ 70%

## COCCS(C)(=O)=Nc1ccc2nn(-c3cncnc3)cc2n1 (stereo not drawn) [Compound 237]
[2]
  mortality at 300 ppm: ≥ 70%
[1]
  mortality at 300 ppm: ≥ 70%

## CCCS(C)(=O)=Nc1ccc2nn(-c3cccnc3)cc2n1 (stereo not drawn) [Compound 239]
[2]
  mortality at 300 ppm: ≥ 70%
[1]
  mortality at 300 ppm: ≥ 70%

## CCS(C)(=O)=Nc1ccc2nn(-c3cccnc3)cc2n1 (stereo not drawn) [Compound 248]
[2]
  mortality at 300 ppm: ≥ 70%
[1]
  mortality at 300 ppm: ≥ 70%

## CCS(=O)(CC)=Nc1ccc2nn(-c3cccnc3)cc2n1 [Compound 249]
[2]
  mortality at 300 ppm: ≥ 70%
[1]
  mortality at 300 ppm: ≥ 70%

## CCCS(=O)(=Nc1ccc2nn(-c3cccnc3)cc2n1)C(C)C (stereo not drawn) [Compound 254]
[2]
  mortality at 300 ppm: ≥ 70%
[1]
  mortality at 300 ppm: ≥ 70%

## CCCS(=O)(=Nc1ccc2nn(-c3cccnc3)cc2c1)C(C)C (stereo not drawn) [Compound 256]
[1]
  mortality at 300 ppm: ≥ 70%

## CCCCS(=N)(=O)c1ccc2nn(-c3cccnc3)cc2c1 (stereo not drawn) [Compound 385, butyl(imino)(2-(pyridin-3-yl)-2H-indazol-5-yl)-λ^6-sulfanone]
[2]
  mortality at 300 ppm: ≥ 70%
[3]
  mortality at 300 ppm: ≥ 70%

## CCCCS(=O)(=NCC)c1ccc2nn(-c3cccnc3)cc2c1 (stereo not drawn) [Compound 390]
[1]
  mortality at 300 ppm: ≥ 70%

## CCN=S(=O)(CC)c1ccc2nn(-c3cccnc3)cc2c1 (stereo not drawn) [Compound 391]
[2]
  mortality at 300 ppm: ≥ 70%
[3]
  mortality at 300 ppm: ≥ 70%

## O=S(CC1CC1)(=NC1CC1)c1ccc2nn(-c3cncnc3)cc2c1 (stereo not drawn) [Compound 446]
[2]
  mortality at 300 ppm: ≥ 70%
[3]
  mortality at 300 ppm: ≥ 70%

## CN=S(=O)(CC1CC1)c1ccc2nn(-c3cncnc3)cc2c1 (stereo not drawn) [Compound 447]
[2]
  mortality at 300 ppm: ≥ 70%
[3]
  mortality at 300 ppm: ≥ 70%

## N=S(=O)(CC1CC1)c1ccc2nn(-c3cncnc3)cc2c1 (stereo not drawn) [Compound 450, (cyclopropylmethyl)(imino)(2-(pyrimidin-5-yl)-2H-indazol-5-yl)-λ^6-sulfanone]
[2]
  mortality at 300 ppm: ≥ 70%
[3]
  mortality at 300 ppm: ≥ 70%

## CCS(=O)(=NC(C)=O)c1ccc2nn(-c3cncnc3)cc2c1 (stereo not drawn) [Compound 456]
[1]
  mortality at 300 ppm: ≥ 70%

## CCS(=N)(=O)c1ccc2nn(-c3cncc(F)c3)cc2c1 (stereo not drawn) [Compound 460, ethyl(2-(5-fluoropyridin-3-yl)-2H-indazol-5-yl)(imino)-λ^6-sulfanone]
[1]
  mortality at 300 ppm: ≥ 70%

## CCS(=O)(=NC(C)=O)c1ccc2nn(-c3cncc(F)c3)cc2c1 (stereo not drawn) [Compound 462]
[2]
  mortality at 300 ppm: ≥ 70%
[3]
  mortality at 300 ppm: ≥ 70%

## CS(=N)(=O)c1ccc2nn(-c3cncnc3)cc2c1 (stereo not drawn) [Compound 470, imino(methyl)(2-(pyrimidin-5-yl)-2H-indazol-5-yl)-λ^6-sulfanone]
[2]
  mortality at 300 ppm: ≥ 70%
[3]
  mortality at 300 ppm: ≥ 70%

## CCN=S(C)(=O)c1ccc2nn(-c3cncnc3)cc2c1 (stereo not drawn) [Compound 474]
[2]
  mortality at 300 ppm: ≥ 70%
[3]
  mortality at 300 ppm: ≥ 70%

## CC(=O)N=S(C)(=O)c1ccc2nn(-c3cncnc3)cc2c1 (stereo not drawn) [Compound 475]
[2]
  mortality at 300 ppm: ≥ 70%
[3]
  mortality at 300 ppm: ≥ 70%

## CCCS(=O)(=NC(C)=O)c1ccc2nn(-c3cncc(F)c3)cc2c1 (stereo not drawn) [Compound 483]
[1]
  mortality at 300 ppm: ≥ 70%

## CC1(CS(=N)(=O)c2ccc3nn(-c4cncc(F)c4)cc3c2)COC1 (stereo not drawn) [Compound 484, (2-(5-fluoropyridin-3-yl)-2H-indazol-5-yl)(imino)((3-methyloxetan-3-yl)methyl)-λ^6-sulfanone]
[1]
  mortality at 300 ppm: ≥ 70%

## CCC(CC)S(=O)(=NC(C)=O)c1ccc2nn(-c3cncc(F)c3)cc2c1 (stereo not drawn) [Compound 485]
[1]
  mortality at 300 ppm: ≥ 70%

## CCC(C)S(=O)(=NC(C)=O)c1ccc2nn(-c3cncc(F)c3)cc2c1 (stereo not drawn) [Compound 486]
[1]
  mortality at 300 ppm: ≥ 70%

## CC(=O)N=S(=O)(CCCF)c1ccc2nn(-c3cncc(F)c3)cc2c1 (stereo not drawn) [Compound 487]
[1]
  mortality at 300 ppm: ≥ 70%

## N=S(=O)(c1ccc2nn(-c3cncc(F)c3)cc2c1)C1CCC1 (stereo not drawn) [Compound 488, cyclobutyl(2-(5-fluoropyridin-3-yl)-2H-indazol-5-yl)(imino)-λ^6-sulfanone]
[1]
  mortality at 300 ppm: ≥ 70%

## CCN=S(=O)(c1ccc2nn(-c3cncc(F)c3)cc2c1)C(C)CC (stereo not drawn) [Compound 490]
[1]
  mortality at 300 ppm: ≥ 70%

## CCN=S(=O)(CCCF)c1ccc2nn(-c3cncc(F)c3)cc2c1 (stereo not drawn) [Compound 491]
[1]
  mortality at 300 ppm: ≥ 70%

## CCN=S(=O)(c1ccc2nn(-c3cncc(F)c3)cc2c1)C(CC)CC (stereo not drawn) [Compound 492]
[1]
  mortality at 300 ppm: ≥ 70%

## N=S(=O)(c1ccc2nn(-c3cccnc3)cc2c1)C1CCCC1 (stereo not drawn) [Compound 558, cyclopentyl(imino)(2-(pyridin-3-yl)-2H-indazol-5-yl)-λ^6-sulfanone]
[1]
  mortality at 300 ppm: ≥ 70%

## N=S(=O)(c1ccc2nn(-c3cccnc3)cc2c1)C1CCCCC1 (stereo not drawn) [Compound 560, cyclohexyl(imino)(2-(pyridin-3-yl)-2H-indazol-5-yl)-λ^6-sulfanone]
[1]
  mortality at 300 ppm: ≥ 70%

## N#CCCCS(=N)(=O)c1ccc2nn(-c3cccnc3)cc2c1 (stereo not drawn) [Compound 564, 4-(2-(pyridin-3-yl)-2H-indazole-5-sulfonimidoyl)butanenitrile]
[1]
  mortality at 300 ppm: ≥ 70%

## CCN=S(=O)(c1ccc2nn(-c3cccnc3)cc2c1)C1CCC1 (stereo not drawn) [Compound 567]
[1]
  mortality at 300 ppm: ≥ 70%

## N=S(=O)(CC1CCCO1)c1ccc2nn(-c3cccnc3)cc2c1 (stereo not drawn) [Compound 569, imino(2-(pyridin-3-yl)-2H-indazol-5-yl)((tetrahydrofuran-2-yl)methyl)-λ^6-sulfanone]
[1]
  mortality at 300 ppm: ≥ 70%

## CC(=O)N=S(=O)(c1ccc2nn(-c3cccnc3)cc2c1)C1CCCC1 (stereo not drawn) [Compound 581]
[1]
  mortality at 300 ppm: ≥ 70%
